System: not listed separately
Assay: Acute oral toxicity (LD50)
Settings: in vivo, male rat
Procedure: For example, LD50 value (acute oral toxicity to male rat) of the compound No. 8 is more than 1,000 mg/kg.

| SMILES | LD50 |
| --- | --- |
| COc1ccc(C(=O)C(C(C)=O)=C2SCS2)c(OC)c1 [Compound No. 8] | > 1000 mg/kg |

System: hepatic disorder caused by carbon tetrachloride
Assay: Effect of suppressing hepatic disorder caused by carbon tetrachloride
Assay type: in vivo, mice
Settings: mice (dd-strain), 250 mg/kg oral in olive oil, 6 h before carbon tetrachloride 0.05 ml/kg oral; visual observation 24 h after; mean of 5; scale 0 healthy, 2 slightly affected, 4 evident disorder, 6 serious disorder
Procedure: Six hours thereafter, carbon tetrachloride was orally administered in a proportion of 0.05 ml/kg. The animals were sacrificed 24 hours after the administration of carbon tetrachloride, and the extent of liver disorder was examined by visual observation. On the other hand, blood was collected from the animal at the time of the sacrifice, and centrifuged to obtain plasma. The plasma glutamic piruvic transaminase (GPT) activity was determined according to the method of Reitman-Frankel. The activity was expressed in terms of Karmen Units (K.U.). The conditions of the liver were expressed in terms of liver disorder index as follows. […] Mice were used in groups of five and the results of test were represented by the mean value. When the GPT activity was 2,100 units or higher, […], and the activity was calculated as 2,100 units for reasons of convenience.

| SMILES | Liver disorder index |
| --- | --- |
| COc1ccc(C(=O)C(C(C)=O)=C2SCS2)c(OC)c1 [Compound No. 8] | 0.6 |
| CC(=O)C(C(=O)c1cccc(C)c1)=C1SCS1 [Compound No. 2] | 0.8 |
| CC(=O)C(C(C)=O)=C1SC(C)S1 (stereo not shown) [compound 25] | 1.2 |
| CC(=O)C(C(=O)c1ccc(C)c(C)c1)=C1SCS1 [compound 4, 1-(3,4-dimethylbenzoyl)-1-(1,3-dithietan-2-ylidene)acetone] | 0.6 |
| COc1ccccc1C(=O)C(C(C)=O)=C1SCS1 [Compound No. 5, 1-(1,3-dithietan-2-ylidene)-1-(2-methoxybenzoyl)acetone] | 1.0 |
| CC(=O)C(C(=O)c1ccc(Cl)cc1Cl)=C1SCS1 [Compound No. 15] | 0.5 |
| O=C(C(C(=O)c1ccc(F)cc1)=C1SCS1)c1ccccc1 [compound 31, 1-(1,3-dithietan-2-ylidene)-1-(4-fluorobenzoyl)acetophenone] | 0.4 |
| CC(=O)C(C(C)=O)=C1SCS1 [compound 18, 1-acetyl-1-(1,3-dithietan-2-ylidene) acetone] | 1.6 |
| CC(=O)C(C(=O)c1ccc(Cl)cc1)=C1SCS1 [compound 14] | 0.2 |
| CC(=O)C(C(=O)c1ccc2ccccc2c1)=C1SCS1 [compound 32] | 0.8 |
| CC(=O)C(C(=O)c1cccnc1)=C1SCS1 [compound 21] | 0.2 |
| CC(=O)C(C(=O)c1ccc(Br)cc1)=C1SCS1 [compound 16, 1-(4-bromobenzoyl)-1-(1,3-dithietan-2-ylidene)acetone] | 0 |
| COc1ccc(C(=O)C(C(C)=O)=C2SCS2)cc1OC [compound 9] | 0.6 |
| O=C(C(C(=O)c1ccccc1)=C1SCS1)c1ccccc1 [compound 22] | 0.5 |
| CC(=O)C(C(=O)c1ccc(C)cc1)=C1SCS1 [compound 3] | 1.4 |
| Cc1cccc(C(=O)C(C(=O)c2ccccc2)=C2SCS2)c1 [compound 30] | 0.6 |
| CC(=O)C(C(=O)c1ccco1)=C1SCS1 [compound 20] | 0 |
| CC(=O)C(C(=O)c1ccccc1)=C1SCS1 [Compound No. 1] | 0.7 |
| COc1cc(C(=O)C(C(C)=O)=C2SCS2)cc(OC)c1OC [compound 10] | 1.8 |
| CC(=O)C(C(=O)c1ccc(OC(C)C)cc1)=C1SCS1 [compound 29] | 3.4 |
| COc1cccc(C(=O)C(C(C)=O)=C2SCS2)c1 [compound 6] | 2.0 |
| COc1ccc(C(=O)C(C(C)=O)=C2SCS2)cc1 [compound 7] | 1.2 |
| CC(=O)C(C(=O)c1ccc(OCc2ccc(Cl)cc2)cc1)=C1SCS1 [compound 12] | 2.8 |
| CC(=O)C(C(=O)c1ccc(OCc2ccccc2)cc1)=C1SCS1 [compound 11] | 1.6 |
| CC(=O)C(C(=O)c1ccc(F)cc1)=C1SCS1 [compound 17] | 0.4 |
| CC(C)C(=O)C(C(=O)c1ccccc1Cl)=C1SCS1 [compound 28] | 1.0 |
| CC(=O)C(C(=O)c1ccccc1)=C1SC(c2ccccc2)S1 (stereo not shown) [compound 23] | 6.6 |
| COc1cccc(C(=O)C(C(C)=O)=C2SC(c3ccccc3)S2)c1 (stereo not shown) [compound 24] | 3.8 |
| CC(=O)C(C(=O)c1cccs1)=C1SCS1 [compound 19, 1-(1,3-dithietan-2-ylidene)-1-(2-thiophene-carbonyl)acetone] | 0.2 |
| CC(=O)C(C(=O)c1ccccc1Cl)=C1SCS1 [compound 13] | 0.8 |

Same assay, conditions: plasma glutamic pyruvic transaminase activity, Reitman-Frankel; mice, 250 mg/kg oral, 6 h before carbon tetrachloride 0.05 ml/kg; 24 h after; mean of 5; values of 2,100 units or higher counted as 2,100

| SMILES | p-GPT (K.U.) |
| --- | --- |
| COc1ccc(C(=O)C(C(C)=O)=C2SCS2)c(OC)c1 [Compound No. 8] | 54 K.U. |
| CC(=O)C(C(=O)c1cccc(C)c1)=C1SCS1 [Compound No. 2] | 22 K.U. |
| CC(=O)C(C(C)=O)=C1SC(C)S1 (stereo not shown) [compound 25] | 205 K.U. |
| CC(=O)C(C(=O)c1ccc(C)c(C)c1)=C1SCS1 [compound 4, 1-(3,4-dimethylbenzoyl)-1-(1,3-dithietan-2-ylidene)acetone] | 23 K.U. |
| COc1ccccc1C(=O)C(C(C)=O)=C1SCS1 [Compound No. 5, 1-(1,3-dithietan-2-ylidene)-1-(2-methoxybenzoyl)acetone] | 12 K.U. |
| CC(=O)C(C(=O)c1ccc(Cl)cc1Cl)=C1SCS1 [Compound No. 15] | 203 K.U. |
| O=C(C(C(=O)c1ccc(F)cc1)=C1SCS1)c1ccccc1 [compound 31, 1-(1,3-dithietan-2-ylidene)-1-(4-fluorobenzoyl)acetophenone] | 16 K.U. |
| CC(=O)C(C(C)=O)=C1SCS1 [compound 18, 1-acetyl-1-(1,3-dithietan-2-ylidene) acetone] | 1142 K.U. |
| CC(=O)C(C(=O)c1ccc(Cl)cc1)=C1SCS1 [compound 14] | 73 K.U. |
| CC(=O)C(C(=O)c1ccc2ccccc2c1)=C1SCS1 [compound 32] | 18 K.U. |
| CC(=O)C(C(=O)c1cccnc1)=C1SCS1 [compound 21] | 14 K.U. |
| CC(=O)C(C(=O)c1ccc(Br)cc1)=C1SCS1 [compound 16, 1-(4-bromobenzoyl)-1-(1,3-dithietan-2-ylidene)acetone] | 15.8 K.U. |
| COc1ccc(C(=O)C(C(C)=O)=C2SCS2)cc1OC [compound 9] | 11 K.U. |
| O=C(C(C(=O)c1ccccc1)=C1SCS1)c1ccccc1 [compound 22] | 71 K.U. |
| CC(=O)C(C(=O)c1ccc(C)cc1)=C1SCS1 [compound 3] | 14 K.U. |
| Cc1cccc(C(=O)C(C(=O)c2ccccc2)=C2SCS2)c1 [compound 30] | 19 K.U. |
| CC(=O)C(C(=O)c1ccco1)=C1SCS1 [compound 20] | 22 K.U. |
| CC(=O)C(C(=O)c1ccccc1)=C1SCS1 [Compound No. 1] | 23 K.U. |
| COc1cc(C(=O)C(C(C)=O)=C2SCS2)cc(OC)c1OC [compound 10] | 413 K.U. |
| CC(=O)C(C(=O)c1ccc(OC(C)C)cc1)=C1SCS1 [compound 29] | 233 K.U. |
| COc1cccc(C(=O)C(C(C)=O)=C2SCS2)c1 [compound 6] | 16 K.U. |
| COc1ccc(C(=O)C(C(C)=O)=C2SCS2)cc1 [compound 7] | 19 K.U. |
| CC(=O)C(C(=O)c1ccc(OCc2ccc(Cl)cc2)cc1)=C1SCS1 [compound 12] | 1739 K.U. |
| CC(=O)C(C(=O)c1ccc(OCc2ccccc2)cc1)=C1SCS1 [compound 11] | 884 K.U. |
| CC(=O)C(C(=O)c1ccc(F)cc1)=C1SCS1 [compound 17] | 15 K.U. |
| CC(C)C(=O)C(C(=O)c1ccccc1Cl)=C1SCS1 [compound 28] | 42 K.U. |
| CC(=O)C(C(=O)c1ccccc1)=C1SC(c2ccccc2)S1 (stereo not shown) [compound 23] | 1668 K.U. |
| COc1cccc(C(=O)C(C(C)=O)=C2SC(c3ccccc3)S2)c1 (stereo not shown) [compound 24] | 1654 K.U. |
| CC(=O)C(C(=O)c1cccs1)=C1SCS1 [compound 19, 1-(1,3-dithietan-2-ylidene)-1-(2-thiophene-carbonyl)acetone] | 16 K.U. |
| CC(=O)C(C(=O)c1ccccc1Cl)=C1SCS1 [compound 13] | 13 K.U. |

— patent publication EP0234480A2, “1, 3-diketone derivatives and their use” (NIHON NOHYAKU CO., LTD., priority 1986, dated 1987)
